Broadly, the EC50 is the concentration giving half of the maximal effect. The low end stands for greater potency, the high end for weaker potency. A word on the Ki: it is the dissociation constant of the complex between target and ligand, obtained from inhibition or displacement.

The values below come from patent publication US12569577B2, “PSMA-targeting imaging agents” (The Cleveland Clinic Foundation, priority 2019, dated 2026).

One data set has as its target T1, PSMA (Homo sapiens, UniProt Q04609).
T1 construct: expressed in transfected cells; host or cells: PC3-PIP cells (washed membrane preparation after freeze/thaw)
Nature of the data set: Competitive binding assay: NAAG hydrolysis by PC3-PIP membranes, Amplex Red glutamic acid readout. The class given is biochemical. To be noted: for EC50: PC3-PIP membranes. As for the experimental part:
PC3-PIP PSMA-expressing cells were grown to confluency, harvested in 50 mM Tris-HCl (pH 7.5) and subjected to four freeze/thaw cycles. Cell membranes were washed three times by centrifugation at 12,000g or higher. The cell membranes were diluted to 50 mg/mL in 50 mM Tris-HCl (pH 7.5) (based on wet weight of the solid after centrifugation). Binding assays were conducted in 96 well plates. Phase 1 of the assay used wells containing 100 microliters 50 mM Tris-HCl (pH 7.5) with 4 microns NAAG and 10 microns of PC3-PIP membrane, to which differing concentrations of Compound 1 was added. The 96 well plate was incubated at 37° C. for 2 h. The glutamic acid concentration was measured with the Amplex Red glutamic acid assay kit (Invitrogen-Molecular Probes) using a fluorescent plate reader (530 nm excitation, 590 nm emission). The resulting fluorescence signals were normalized, and normalized fluorescence plotted against the concentration of ligand (log (nm)) (FIG. 1). EC50 was determined according to Eq. 1 (below). [formula]

For data set [1] the following is noted: 68Ga-labelled; Rousseau et al.; cited from earlier work.
The subject of the next data set is prostate cancer lesions. The note with it: cited from earlier work.

Like-named read-outs stand apart in the source and are kept apart here. *1 amine or outer side, *2 acyl side, *3 side chain or, on linkers, in order; H or OH if unused. Where a SMILES comes first, the peptide text is derived from it. The star is where a group is joined. DOTA = O=C(O)CN1CCN(CC(=O)O)CCN(CC(=O)*)CCN(CC(=O)O)CC1; γGlu = O=C(O)[CH](CCC(=O)[*:2])N[*:1]; CO = O=C([*:1])[*:2]; Ahx = NCCCCCC(=O)O

T1 sequence (Q04609 whole entry): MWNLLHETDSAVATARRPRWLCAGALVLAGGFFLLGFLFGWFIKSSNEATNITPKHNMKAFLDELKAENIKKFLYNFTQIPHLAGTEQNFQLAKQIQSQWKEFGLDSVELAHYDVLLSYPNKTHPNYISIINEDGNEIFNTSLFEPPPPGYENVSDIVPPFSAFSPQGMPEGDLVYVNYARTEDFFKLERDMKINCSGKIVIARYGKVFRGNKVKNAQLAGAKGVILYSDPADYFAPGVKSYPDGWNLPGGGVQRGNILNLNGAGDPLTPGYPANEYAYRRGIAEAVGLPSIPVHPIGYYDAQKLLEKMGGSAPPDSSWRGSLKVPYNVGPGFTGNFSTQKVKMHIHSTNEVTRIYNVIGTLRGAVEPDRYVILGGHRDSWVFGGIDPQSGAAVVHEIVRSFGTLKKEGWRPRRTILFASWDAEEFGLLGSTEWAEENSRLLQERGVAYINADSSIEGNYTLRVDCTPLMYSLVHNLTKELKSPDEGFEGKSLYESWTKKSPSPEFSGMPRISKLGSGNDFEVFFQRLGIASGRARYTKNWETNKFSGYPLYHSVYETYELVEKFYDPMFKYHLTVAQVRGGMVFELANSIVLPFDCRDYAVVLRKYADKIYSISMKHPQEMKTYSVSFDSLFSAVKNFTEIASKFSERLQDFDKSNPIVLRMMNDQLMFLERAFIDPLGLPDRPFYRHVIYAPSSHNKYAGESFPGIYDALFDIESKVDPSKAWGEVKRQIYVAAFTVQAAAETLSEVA

`NC(=O)C(CCCCNC(=O)CN1CCN(CC(=O)O)CCN(CC(=O)O)CCN(CC(=O)O)CC1)NC(=O)C(Cc1ccc(O)cc1)NC(=O)C(CCC(=O)O)NC(=O)C(CCC(=O)O)NC(=O)C(CCC(=O)O)NC(=O)CCCCCNC(=O)CCC(NC(=O)NC(CCC(=O)O)C(=O)O)C(=O)O` (stereo not shown) [Compound 1] ({Glu-CO-γGlu-Ahx}-EEEYK(DOTA)-NH2; configuration not given here) gave an EC50 at PSMA (NAAG substrate, 37° C. 2 h, FIG. 1) of 0.287 ± 0.064 nM. Further, the Ki at PSMA (calculated from the competitive binding assay, read-out: estimated Ki to PSMA) was under 0.3 nM.

For `O=C(O)CCC(NC(=O)NC(CCCCNC(=O)CCC(NC(=O)CCC(NC(=O)c1ccc(F)nc1)C(=O)O)C(=O)O)C(=O)O)C(=O)O` (stereo not shown) [Compound 11], the EC50 on PSMA (FIG. 2 and FIG. 3) is about 0.1 nM.

`O=C(O)CCC(NC(=O)NC(CCCCNC(=O)CCC(NC(=O)CCC(NC(=O)C(Cc1ccc(O)cc1)NC(=O)CN1CCN(CC(=O)O)CCN(CC(=O)O)CCN(CC(=O)O)CC1)C(=O)O)C(=O)O)C(=O)O)C(=O)O` (stereo not shown) [Compound 14, E′K-E!E!Y-DOTA]: at PSMA (FIG. 2 and FIG. 3), the EC50 came to 0.39 ± 0.02 nM.

As for `O=C(O)CCc1ccc(O)c(CN(CCN(CC(=O)O)Cc2cc(CCC(=O)NCCCCCC(=O)NCCCC[C@H](NC(=O)N[C@@H](CCC(=O)O)C(=O)O)C(=O)O)ccc2O)CC(=O)O)c1` [PSMA 11, Glu-NH—CO—NH-Lys (Ahx)-[^68Ga(HBEDCC], metal not drawn], in data set [1], the “Biodistribution Blood” value is on record as 0.31% ± 0.08%, the “Biodistribution Kidney” value is reported as 182% ± 33%, the “Biodistribution Liver” value is recorded as 0.44% ± 0.13% and the “Biodistribution Muscle” value was 0.54% ± 0.14%. Also, in data set [1], the “Biodistribution Salivary Gland” value was 10.00% ± 2.52%, the “Biodistribution Spleen” value is recorded as 22.2% ± 7.91% and the “Biodistribution Tumor” value is listed as 8.67% ± 1.97%. Further, in the data set with prostate cancer lesions (PSA <2.2 ng/ml), the “(per patient) lesion detection rate” value was 60%. For the same compound, the “(per patient) lesion detection rate” value with prostate cancer lesions (PSA >2.2 ng/ml) is on record as 100%.
